Article PMC7432094, “Flexible NAD^+ Binding in Deoxyhypusine Synthase Reflects the Dynamic Hypusine Modification of Translation Factor IF5A” (International Journal of Molecular Sciences, 2020)

Biological target: T1, PhoDHS (deoxyhypusine synthase from Pyrococcus horikoshii OT3) (Pyrococcus horikoshii, UniProt O50105)
T1 construct: gene dys; full length 1-342, 39 kDa; N-terminal His6 tag with TEV site, tag cleaved; expressed in E. coli B834 (DE3) pRARE2; homotetramer about 130 kDa
Experiment: X-ray crystal structure ([…] Å); UV absorbance of NAD+ bound in solution
Format: binding
Settings: NAD+ co-purified from E. coli, none added for the crystal; crystals at pH 4.8, 20 °C; UV at pH 8.0; site at the molA/molD interface

T1 sequence (O50105 whole entry): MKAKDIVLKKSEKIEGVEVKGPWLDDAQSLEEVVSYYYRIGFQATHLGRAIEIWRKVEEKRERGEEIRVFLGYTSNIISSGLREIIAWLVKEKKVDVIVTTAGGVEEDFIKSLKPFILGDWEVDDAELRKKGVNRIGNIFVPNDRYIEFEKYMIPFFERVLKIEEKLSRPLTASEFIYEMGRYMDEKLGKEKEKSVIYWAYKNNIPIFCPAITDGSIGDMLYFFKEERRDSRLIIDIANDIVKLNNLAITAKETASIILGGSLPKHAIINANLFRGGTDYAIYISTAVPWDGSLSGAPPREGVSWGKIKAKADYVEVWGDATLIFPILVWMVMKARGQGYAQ

NC(=O)c1ccc[n+]([C@@H]2O[C@H](COP(=O)(O)OP(=O)(O)OC[C@H]3O[C@@H](n4cnc5c(N)ncnc54)[C@H](O)[C@@H]3O)[C@@H](O)[C@H]2O)c1 [NAD^+]
X-ray crystal structure (2.2 Å); UV absorbance of NAD+ bound in solution: Two bulky electron density blocks shaped as NAD^+ were distinguished at the interface between molA
